# Reference: US20150204851A1, “METHODS FOR IDENTIFYING DIABETES DRUGS” (Metanomics Health GmbH, priority 2012, published 2015)
# Counter-ions that a name gives are not always drawn.
# What was measured:
# [1] = tested on: glyoxylate; conditions: cultured human cells; Berman 2005; cited from earlier work
# [2] = Mehta 2009; cited from earlier work
# [3] = tested on: glyoxylate; experiment: Glyoxylate level in C. elegans after treatment, GC-MS; type: in vivo, Caenorhabditis elegans; conditions: for Effect on native/endogenous glyoxylate levels in C. elegans: single treatment: 50 mM metformin or 20 mM glyoxylate; for Ratio of glyoxylate concentrations in C. elegans, treatment/control: wild type on growth medium, 20 mM glyoxylate and/or 50 mM metformin, normalized to median of control
# Method: Nematodes were harvested and extensively washed with buffer and the resulting pellet was disrupted using glass beats in combination with mechanical force. Samples were extracted with methyl-tert-butylether, methanol and extraction buffer and sonicated for 15 minutes. 50% of a mixture of water/methanol (3:1) was added, vigorously mixed and centrifuged. The polar phase was evaporated to dryness. After addition of water and a mixture of ethanol and dichlormethan, the sample was fractioned into an aqueous, polar phase and an organic, lipophilic phase. 13C-glyoxylate was added as internal standard and the extracts were derivatized in the following way: The methoximation of the carbonyl groups was carried out by reaction with methoxyamine hydrochloride (20 mg/mL in pyridine, 50 μL for 1.5 hours at 60° C.) in a tightly sealed vessel. Finally, the derivatization with 50 μL of N-methyl-N-(trimethylsilyl)-2,2,2-trifluoroacetamide (MSTFA) was carried out for 30 minutes at 60° C., again in the tightly sealed vessel. The final volume before injection into the GC was 100 μL. The GC-MS systems consist of an Agilent 6890 GC coupled to an Agilent 5973 MSD. Autosamplers were CompiPal or GCPaI from CTC.
# For the analysis a usual commercial capillary separation column (30 m×0.25 mm×0.5 μm) with an arylene/poly-methyl-siloxane stationary phases was used (for example: DB-XLB, Agilent Technologies). 0.5 μL of the final volume was injected splitless and the oven temperature program was started at 70° C. and ended at 320° C. with different heating rates starting with low rates in order to achieve a sufficient chromatographic separation and number of scans for glyoxylate analysis and changing to a high heating rate after glyoxylate elution. Furthermore usual GC-MS standard conditions, for example constant flow with nominal 1 to 1.7 mL/min. and helium as the mobile phase gas and standard tune conditions were applied. Ionization was done by electron impact with 70 eV, scanning 2 characteristic mass fragments of the glyoxylate derivate and its internal standard, respectively within an appropriate time window. Scan rate was 25 scans/sec. Glyoxylate values were normalized to Total Ion Count of each sample to adjust individual deviation of sample volume. Furthermore, the data were normalized to the median of the control samples leading to ratios to control.
# We tested the hypothesis that metformin suppresses glyoxylate concentration in in vivo experiments with the model worm Caenorhabditis elegans, by means of its treatment with glyoxylate and metformin separately and in combination of glyoxylate plus metformin.
# The experiment included four treatment groups:
# 1) C. elegans, wild type (wt)—on growth medium (no treatment, control).
# 2) C. elegans, wt—on growth medium plus 50 mM metformin (methodology for Metformin application and doses as described in Onken & Driscoll (Onken B, Driscoll M (2010) Metformin induces a dietary restriction-like state and the oxidative stress response to extend C. elegans healthspan via AMPK, LKB1, and SKN-1. PLoS ONE 5(1): e8758.).
# 3) C. elegans, wt—on growth medium plus 20 mM glyoxylate.
# 4) C. elegans, wt—on growth medium plus 20 mM glyoxylate and 50 mM metformin.
# From the GC-MS metabolite profiles, total ion count (TIC) as a measure of the absolute intensity value was calculated for each batch. Measured glyoxylate levels were then volume-normalized, using TICs.
# [4] = tested on: glyoxylate; experiment: Plasma glyoxylate in rats dosed 28 days by gavage, GC-MS metabolite profiling; type: in vivo, rat; conditions: for Ratio treatment/control, plasma glyoxylate: gavage once daily
# Method: Two groups of each 5 male and female rats was dosed once daily with the indicated compounds with a different dose per group (see below) over 28 days.
# Each dose group in the studies consisted of five rats per sex. Additional groups of each 15 male and 15 female animals served as controls. Before starting the treatment period, animals, which were 62-64 days old when supplied, were acclimatized to the housing and environmental conditions for 7 days. All animals of the animal population were kept under the same constant temerature (20-24±3° C.) and the same constant humidity (30-70%). The animals of the animal population were fed ad libitum. The food to be used was essentially free of chemical or microbial contaminants. Drinking water was also offered ad libitum. Accordingly, the water was free of chemical and microbial contaminants as laid down in the European Drinking Water Directive 98/83/EG. The illumination period was 12 hours light followed by 12 hours darkness (12 hours light, from 6:00 to 18:00, and 12 hours darkness, from 18:00 to 6:00). The studies were performed in an AAALAC-approved laboratory in accordance with the German Animal Welfare Act and the European Council Directive 86/609/EE. The test system was arranged according to the OECD 407 guideline for the testing of chemicals for repeated dose 28-day oral toxicity study in rodents. The test substance was dosed and administered as follows:
# Metformin hydrochloride was administered by gavage (high dose group at 1 g/kg body weight, low dose group at 0.2 g/kg body weight), in drinking water containing 0.5% Carboxymethyl cellulose (Tylose CB30000) (administration volume: 10 ml/kg body weight).
# In the morning of day 7, 14, and 28, blood was taken from the retroorbital venous plexus from fasted anaesthetized animals. From each animal, 1 ml of blood was collected with EDTA as anticoagulant. The samples were centrifuged for generation of plasma. All plasma samples were covered with a N2 atmosphere and then stored at −80° C. until analysis.
# For mass spectrometry-based metabolite profiling analyses plasma samples were extracted and a polar and a non-polar (lipid) fraction was obtained. For GC-MS analysis, the non-polar fraction was treated with methanol under acidic conditions to yield the fatty acid methyl esters. Both fractions were further derivatized with O-methyl-hydroxyamine hydrochloride and pyridine to convert Oxo-groups to O-methyloximes and subsequently with a silylating agent before analysis.
# Following comprehensive analytical validation steps, the data for each analyte were normalized against data from pool samples. These samples were run in parallel through the whole process to account for process variability. The significance of treatment group values specific for sex, treatment duration and metabolite was determined by comparing means of the treated groups to the means of the respective untreated control groups using WELCH-test and quantified with treatment ratios versus control and p-values.
# [5] = tested on: C. elegans; conditions: in vivo; cited from earlier work
smiles,measurement,setting,value
"N=C(N)NN [Aminoguanidine, aminoguanidine]","Scavenging of glyoxylate, diverting it from oxalate synthesis",[1],demonstrated to scavenge glyoxylate
same,"Order of effectiveness for glyoxal trapping, amine-containing drugs",[2],aminoguanidine>>pyridoxamine>metformin
"O=CC(=O)O [Glyoxylate, glyoxylate]",Effect on native/endogenous glyoxylate levels in C. elegans,[3],significant increase of endogenous glyoxylate
same,"Ratio of glyoxylate concentrations in C. elegans, treatment/control",[3],1.81
CN(C)C(=N)N=C(N)N [Metformin hydrochloride],"Ratio treatment/control, plasma glyoxylate","[4]; High Dose 1 g/kg body weight, female rats, day 7 (f7)",0.82
same,"Ratio treatment/control, plasma glyoxylate","[4]; High Dose 1 g/kg body weight, female rats, day 14 (f14)",0.58
same,"Ratio treatment/control, plasma glyoxylate","[4]; High Dose 1 g/kg body weight, female rats, day 28 (f28)",0.52
same,"Ratio treatment/control, plasma glyoxylate","[4]; High Dose 1 g/kg body weight, male rats, day 7 (m7)",0.22
same,"Ratio treatment/control, plasma glyoxylate","[4]; High Dose 1 g/kg body weight, male rats, day 14 (m14)",0.29
same,"Ratio treatment/control, plasma glyoxylate","[4]; High Dose 1 g/kg body weight, male rats, day 28 (m28)",0.58
same,"Ratio treatment/control, plasma glyoxylate","[4]; Low Dose 0.2 g/kg body weight, female rats, day 7 (f7)",1.01
same,"Ratio treatment/control, plasma glyoxylate","[4]; Low Dose 0.2 g/kg body weight, female rats, day 14 (f14)",0.72
same,"Ratio treatment/control, plasma glyoxylate","[4]; Low Dose 0.2 g/kg body weight, female rats, day 28 (f28)",0.64
same,"Ratio treatment/control, plasma glyoxylate","[4]; Low Dose 0.2 g/kg body weight, male rats, day 7 (m7)",0.59
same,"Ratio treatment/control, plasma glyoxylate","[4]; Low Dose 0.2 g/kg body weight, male rats, day 14 (m14)",0.65
same,"Ratio treatment/control, plasma glyoxylate","[4]; Low Dose 0.2 g/kg body weight, male rats, day 28 (m28)",0.44
"CN(C)C(=N)N=C(N)N [Metformin, metformin]",Effect on glyoxylate concentrations in a rat model system,[4]; summary of Table 2,strongly reducing glyoxylate concentrations
same,Effect on glyoxylate-induced increase of endogenous glyoxylate in C. elegans,[3]; 50 mM metformin simultaneously to treatment with 20 mM glyoxylate,restored the native glyoxylate level
same,Effect on native/endogenous glyoxylate levels in C. elegans,[3],significantly decreased native glyoxylate levels
same,"Ratio of glyoxylate concentrations in C. elegans, treatment/control",[3],0.88
same,"Order of effectiveness for glyoxal trapping, amine-containing drugs",[2],aminoguanidine>>pyridoxamine>metformin
same,Effect on lifespan in C. elegans,[5],promote lifespan in C. elegans
CC(=O)N[C@@H](CS)C(=O)O [N-acetyl-cysteine],"Order of effectiveness for glyoxal trapping, thiol-containing drugs",[2],penicillamine>cysteine>N-acetyl-cysteine
N[C@@H](CS)C(=O)O [cysteine],"Order of effectiveness for glyoxal trapping, thiol-containing drugs",[2],penicillamine>cysteine>N-acetyl-cysteine
CC(C)(S)[C@@H](N)C(=O)O [penicillamine],"Order of effectiveness for glyoxal trapping, thiol-containing drugs",[2],penicillamine>cysteine>N-acetyl-cysteine
